Where “and” joins values, the source holds several entries; their conditions need not be identical. Identical values can stand only once. Entries after “also recorded” stand apart in the source; their conditions may differ. Like-named read-outs stand apart in the source and are kept apart here.
Tests used:
[1] = target: DNA polymerase α (Homo sapiens, UniProt P09884); test: Inhibition of cellular DNA polymerase α, cell-free; type: biochemical; conditions: AZT-5′-triphosphate used for AZT, read-out: IC50 Polymerases: DNA Polymerase α
[2] = system: CEM cells; test: Cytotoxicity in CEM cells; type: cell-based; conditions: b68: up to 100 μM
[3] = system: HIV-1 HI 12.2; test: Susceptibility of pretherapy AZT-susceptible isolate in acutely infected PBMC; type: cell-based; conditions: Human immunodeficiency virus 1, PBMC, read-out: EC50 against pretherapy isolate
Text: The availability of AZT-resistant and -susceptible viruses allowed us to evaluate the compounds of this invention for their susceptibilities to these viruses in acutely infected PBMC in two experiments. […] In the same assay, the EC50 for TIBO [(+)-(5s)-4,5,6,7-tetrahydro-5methyl-6-(3-methyl-2-butenyl)imidazo(4,5,1-jk)(1,4)benzodiazepin-2(1 H)-thione] R82150 increased >500-fold (data not shown).

[4] = system: HIV-1III; test: Antiviral activity in chronically infected H9 cells, virus RT level; type: cell-based; conditions: Human immunodeficiency virus 1, H9, 144 h, read-out: Antiviral Activity (EC50) in H9 cells infected with HIV-1III
Procedure: (§1) Compound 2c was evaluated for antiviral activity in cells acutely and chronically infected with human immunodeficiency virus (HIV). Reverse transcriptase (RT) levels associated with virus were determined with virus concentrated from cell culture supernatants by high-speed centrifugation to reduce the chances of drug carryover in the enzyme assay using the method described in R. F. Schinazi, et al., Antimicrob. Agents Chemother., 36:2423-2431, 1992.

[5] = system: HIV-2ROD; test: Antiviral activity in acutely infected human PBMC, virus RT level; type: cell-based; conditions: Human immunodeficiency virus 2, PBMC, 144 h, read-out: Antiviral Activity (EC50) in PBMC infected with HIV-2ROD
Procedure: as §1

[6] = system: HIV-1 LAI; test: as above; type: cell-based; conditions: Human immunodeficiency virus 1, PBMC, 144 h, read-out: Antiviral Activity (EC50) in PBMC infected with HIVLAI
Procedure: as §1

[7] = Solubility in water; conditions: pH≧7
[8] = system: HIV-1 and HIV-2; test: Antiviral activity in acutely or chronically infected human lymphocytes (summary statements); type: cell-based
Text: The water soluble C60 derivatives for inactivating HIV by interacting with HIV by Van der Waals contacts with the nonpolar HIVP surface, are substituted symmetrically with organic moieties comprising from 1 to about 20 carbon atoms each and optionally further comprising polar heteroatoms, such as oxygen and nitrogen. The preferred fullerene derivatives are diamino derivatives synthesized in three steps from C60 via a suitably substituted diphenyldiazomethane. High-resolution mass spectrometric analysis of these compounds is possible only under the mild conditions of matrix-assisted laser desorption/ionization Fourier transform mass spectrometry. Direct infrared or ultraviolet laser desorption degrades the compounds so that only C60 ions are observed, in either positive or negative mode. Virus inactivation assays are provided for confirming activity of the C60 derivatives against human immunodeficiency virus type 1 (HIV-1) and HIV-2. […] Inhibition of protease (HIVP) and reverse transcriptase (HIVRT) is also shown.
The therapeutic and prophylactic efficacy of the compounds of this invention has been shown by in vitro assays. […]

[9] = target: pepsin (Homo sapiens, UniProt P0DJD8); test: Pepsin inhibition assay; type: biochemical; conditions: 0.028 μM enzyme, 0.2 M sodium citrate pH 2.0, 37° C.; read-out: IC50 against pepsin
Text: Compound 2c also has antiprotease activity. […] The method used for the assay was similar to that described by Ido, et al., J. Biol. Chem., 266:24359-24366, 1991).

[10] = system: HIV-1; test: HIV-1 p24 antigen assay in supernatants of acutely infected PBMC; type: cell-based; conditions: Human immunodeficiency virus 1; PBMC acutely infected with HIV-1
Procedure: To determine whether the fullerene may bind tightly to inactivate the viral RT, we also measured levels of HIV-1 p24 in supernatants of treated and untreated cultures. Clarified supernatants were treated with Triton X-100 (Sigma Chemicals, St. Louis, Mo.) and tested for HIV-1 antigen by immunocapture with a commercial kit (Abbott, North Chicago, Ill.).

[11] = system: nevirapine (BI-RG587)-susceptible HIV-1; test: Susceptibility of nevirapine-susceptible HIV-1; type: cell-based; conditions: Human immunodeficiency virus 1, read-out: EC50 against nevirapine-susceptible HIV-1
[12] = Cytotoxicity in H9 cells; type: cell-based, human; conditions: human, H9 cells; cell counts on day 6
[13] = system: H9 cells; test: Cytotoxicity in H9 cells; type: cell-based, human; conditions: b68: up to 100 μM

DNA polymerase α, sequence (P09884 whole entry): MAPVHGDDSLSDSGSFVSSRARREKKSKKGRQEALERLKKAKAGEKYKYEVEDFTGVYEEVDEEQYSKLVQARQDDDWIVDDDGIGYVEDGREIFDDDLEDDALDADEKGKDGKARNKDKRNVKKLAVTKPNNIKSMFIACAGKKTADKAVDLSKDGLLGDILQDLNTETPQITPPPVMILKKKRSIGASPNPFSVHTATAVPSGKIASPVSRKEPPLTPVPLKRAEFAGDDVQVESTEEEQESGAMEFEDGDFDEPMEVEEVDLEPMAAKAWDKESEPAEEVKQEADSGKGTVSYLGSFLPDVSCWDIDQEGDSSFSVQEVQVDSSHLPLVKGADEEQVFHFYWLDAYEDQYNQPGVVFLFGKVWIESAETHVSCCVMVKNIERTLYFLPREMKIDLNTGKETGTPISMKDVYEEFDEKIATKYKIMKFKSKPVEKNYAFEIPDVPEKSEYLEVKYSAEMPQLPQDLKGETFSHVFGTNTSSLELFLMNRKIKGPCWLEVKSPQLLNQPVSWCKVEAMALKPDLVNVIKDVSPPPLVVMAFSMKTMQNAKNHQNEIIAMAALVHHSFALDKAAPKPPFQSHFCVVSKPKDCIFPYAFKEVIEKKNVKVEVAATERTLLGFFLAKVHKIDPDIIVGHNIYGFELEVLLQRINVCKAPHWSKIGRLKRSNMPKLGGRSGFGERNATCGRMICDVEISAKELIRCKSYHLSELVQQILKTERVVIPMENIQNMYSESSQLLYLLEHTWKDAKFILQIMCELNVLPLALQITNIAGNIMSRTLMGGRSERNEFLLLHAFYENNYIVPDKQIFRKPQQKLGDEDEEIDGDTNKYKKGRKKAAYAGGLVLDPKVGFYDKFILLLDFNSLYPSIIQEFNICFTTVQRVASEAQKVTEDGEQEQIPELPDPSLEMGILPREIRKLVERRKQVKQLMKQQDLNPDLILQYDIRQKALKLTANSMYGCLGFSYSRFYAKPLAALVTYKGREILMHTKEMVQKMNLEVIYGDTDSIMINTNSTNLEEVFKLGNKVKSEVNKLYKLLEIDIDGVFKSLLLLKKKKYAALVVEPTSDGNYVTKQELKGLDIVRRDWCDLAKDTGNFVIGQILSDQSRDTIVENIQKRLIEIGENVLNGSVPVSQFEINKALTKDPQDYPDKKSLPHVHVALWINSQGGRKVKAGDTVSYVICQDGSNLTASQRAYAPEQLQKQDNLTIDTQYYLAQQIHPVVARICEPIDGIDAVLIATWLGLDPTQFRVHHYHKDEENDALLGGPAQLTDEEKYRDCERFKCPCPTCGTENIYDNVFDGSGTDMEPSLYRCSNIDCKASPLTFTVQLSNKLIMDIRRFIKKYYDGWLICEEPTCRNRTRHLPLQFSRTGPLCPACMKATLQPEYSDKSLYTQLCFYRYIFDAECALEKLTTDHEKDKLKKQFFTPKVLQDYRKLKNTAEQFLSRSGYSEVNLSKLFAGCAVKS
DNA polymerase α, sequence (Q14181 whole entry partner): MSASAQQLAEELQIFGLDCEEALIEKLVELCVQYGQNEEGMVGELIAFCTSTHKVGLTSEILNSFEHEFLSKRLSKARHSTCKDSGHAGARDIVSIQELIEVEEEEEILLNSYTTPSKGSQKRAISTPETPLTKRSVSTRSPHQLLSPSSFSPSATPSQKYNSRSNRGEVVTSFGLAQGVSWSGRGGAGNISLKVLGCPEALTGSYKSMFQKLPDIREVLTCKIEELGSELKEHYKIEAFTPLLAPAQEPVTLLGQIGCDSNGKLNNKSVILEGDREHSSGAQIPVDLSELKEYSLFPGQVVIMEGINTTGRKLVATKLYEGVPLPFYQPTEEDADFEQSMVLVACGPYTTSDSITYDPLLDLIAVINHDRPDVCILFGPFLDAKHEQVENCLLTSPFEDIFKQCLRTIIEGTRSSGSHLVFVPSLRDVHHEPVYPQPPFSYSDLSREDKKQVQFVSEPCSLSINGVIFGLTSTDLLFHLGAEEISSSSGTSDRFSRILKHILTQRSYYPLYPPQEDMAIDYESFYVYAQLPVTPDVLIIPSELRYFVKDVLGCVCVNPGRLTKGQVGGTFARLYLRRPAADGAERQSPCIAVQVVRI
DNA polymerase α, sequence (P49642 whole entry partner): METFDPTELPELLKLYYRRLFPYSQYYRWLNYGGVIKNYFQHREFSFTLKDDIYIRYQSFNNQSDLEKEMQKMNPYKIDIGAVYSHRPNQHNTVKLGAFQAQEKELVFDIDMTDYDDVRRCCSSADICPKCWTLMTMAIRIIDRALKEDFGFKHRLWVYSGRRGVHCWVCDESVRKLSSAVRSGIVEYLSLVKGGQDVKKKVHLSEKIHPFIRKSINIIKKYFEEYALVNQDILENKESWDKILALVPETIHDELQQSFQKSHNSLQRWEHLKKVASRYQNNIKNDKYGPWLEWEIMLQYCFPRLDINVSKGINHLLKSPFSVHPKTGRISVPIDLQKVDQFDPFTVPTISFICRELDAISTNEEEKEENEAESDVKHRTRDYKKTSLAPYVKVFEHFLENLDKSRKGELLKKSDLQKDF
DNA polymerase α, sequence (P49643 whole entry partner): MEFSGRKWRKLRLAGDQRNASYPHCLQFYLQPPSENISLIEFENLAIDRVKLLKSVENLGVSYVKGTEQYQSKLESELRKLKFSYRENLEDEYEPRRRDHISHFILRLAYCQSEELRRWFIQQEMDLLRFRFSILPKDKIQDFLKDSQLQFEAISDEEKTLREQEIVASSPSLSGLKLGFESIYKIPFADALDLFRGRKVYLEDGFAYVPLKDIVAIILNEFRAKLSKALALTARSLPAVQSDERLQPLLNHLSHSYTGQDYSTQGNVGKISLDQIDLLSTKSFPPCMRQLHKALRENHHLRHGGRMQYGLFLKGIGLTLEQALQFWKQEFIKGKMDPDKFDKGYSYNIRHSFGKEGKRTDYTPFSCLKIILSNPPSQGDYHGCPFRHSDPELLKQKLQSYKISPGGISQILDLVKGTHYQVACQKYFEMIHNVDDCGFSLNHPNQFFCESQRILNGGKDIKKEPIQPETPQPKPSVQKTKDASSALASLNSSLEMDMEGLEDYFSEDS
pepsin, sequence (P0DJD8 63-388): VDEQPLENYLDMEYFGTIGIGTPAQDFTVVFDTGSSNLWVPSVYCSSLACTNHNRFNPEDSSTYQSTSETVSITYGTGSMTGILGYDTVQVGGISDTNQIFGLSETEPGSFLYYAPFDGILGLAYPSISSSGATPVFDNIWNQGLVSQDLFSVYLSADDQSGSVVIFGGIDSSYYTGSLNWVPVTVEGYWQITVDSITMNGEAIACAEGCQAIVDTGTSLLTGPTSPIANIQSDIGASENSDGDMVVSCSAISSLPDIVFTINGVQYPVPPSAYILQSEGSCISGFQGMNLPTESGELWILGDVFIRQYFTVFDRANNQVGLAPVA

With O=C(O)CCC(=O)NCCc1ccc(C2(c3ccc(CCNC(=O)CCC(=O)O)cc3)C34c5c6c7c8c9c%10c(c%11c%12c3c3c5c5c%13c6c6c7c7c9c9c%14c%10c%10c%11c%11c%12c%12c3c3c5c5c%13c%13c6c6c7c9c7c9c%14c%10c%10c%11c%11c%12c3c3c5c5c%13c6c7c6c9c%10c%11c3c56)C824)cc1 [Compound 2c, bis(monosuccinimide) derivative of p,p′-bis(2-aminoethyl)diphenyl-C60] the IC50 [1] was 4.9 µM and ~5 µM, the “cytotoxicity in CEM cells” value [2] was “No cytotoxicity; also recorded: noncytotoxic” and the EC50 [3] was 2 to 8 µM. For the same compound, the EC50 [4] was 10.8 ± 8.2 µM, the EC50 [5] was 5.5 ± 3.8 µM and the EC50 [6] was 7.3 ± 5.9 µM. For the same compound, the “solubility in water” value [7] was “soluble”, the EC50 ([8]; Human immunodeficiency virus 1, H9, HIV-1, summary, read-out: EC50, acutely and chronically HIV-1 infected PBMC and chronically infected H9 cells) was 7 µM and the EC50 ([8]; Lymphocyte, average over assays, read-out: EC50 averaging, HIV-1 and HIV-2 in acute or chronically infected human lymphocytes) was about 6 µM. For the same compound, the IC50 [9] was 20 µM, the EC50 [10] was 50 µM and the EC50 [11] was 0.53 µM. For the same compound, the IC50 at 6 days [12] was over 100 µM and the “cytotoxicity in H9 cells” value [13] was “No cytotoxicity; also recorded: noncytotoxic”.
